Assay results published in US9862717B2 (Merck Patent GmbH, priority 2014, dated 2018).

Target: T1, CDK8/CycC (Homo sapiens, UniProt P49336)
T1 construct: purchased Invitrogen PV4402
Assay: FRET based Lanthascreen binding competition assay for CDK8 inhibitory activity
Settings: CDK8 co-expressed with CycC; class symbols
How it was run: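 Competition binding of a dye-labeled ATP-competitive Alexa647 probe to CDK8 co-expressed with CycC, Eu-labeled via biotinylated anti-His antibody/streptavidin.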

T1 sequence (P49336 whole entry): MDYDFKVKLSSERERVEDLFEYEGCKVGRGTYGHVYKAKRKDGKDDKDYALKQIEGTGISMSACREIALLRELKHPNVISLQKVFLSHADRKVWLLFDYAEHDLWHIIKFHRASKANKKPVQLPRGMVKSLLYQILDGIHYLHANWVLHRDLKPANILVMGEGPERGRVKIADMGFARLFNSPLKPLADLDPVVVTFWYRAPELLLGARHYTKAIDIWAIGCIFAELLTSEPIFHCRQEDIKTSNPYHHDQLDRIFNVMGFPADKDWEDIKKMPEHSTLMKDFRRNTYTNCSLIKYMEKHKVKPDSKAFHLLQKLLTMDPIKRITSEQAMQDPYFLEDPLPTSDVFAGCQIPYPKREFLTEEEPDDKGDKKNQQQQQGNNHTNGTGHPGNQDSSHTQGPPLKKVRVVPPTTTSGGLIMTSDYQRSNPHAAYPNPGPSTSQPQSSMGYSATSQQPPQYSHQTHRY
T1 sequence (P24863 whole entry partner): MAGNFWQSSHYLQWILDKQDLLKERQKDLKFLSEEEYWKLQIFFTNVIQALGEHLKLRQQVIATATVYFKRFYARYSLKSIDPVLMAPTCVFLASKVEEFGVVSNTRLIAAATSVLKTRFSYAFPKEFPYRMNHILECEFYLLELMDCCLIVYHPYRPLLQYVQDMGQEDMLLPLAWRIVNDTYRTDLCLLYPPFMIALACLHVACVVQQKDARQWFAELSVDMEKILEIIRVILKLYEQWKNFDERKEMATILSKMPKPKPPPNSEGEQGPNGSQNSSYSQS

Row | SMILES | IC50
1 | Cc1n[nH]c2ncc(C(=O)N3CCCC3c3ccccc3OCC(F)(F)F)cc12 (centres unmarked) [compound 162, (3-Methyl-1H-pyrazolo[3,4-b]pyridin-5-yl)-{2-[2-(2,2,2-trifluoro-ethoxy)-phenyl]-pyrrolidin-1-yl}-methanone] | 0.1 to 1 µM

Same assay, conditions: CDK8 co-expressed with CycC; class symbols; read-out: IC50

Row | SMILES | IC50
2 | Nc1n[nH]c2ccc(C(=O)N3CCCC3c3ccccc3OCC(F)(F)F)cc12 (centres unmarked) [compound 114, (3-Amino-1H-indazol-5-yl)-{2-[2-(2,2,2-trifluoro-ethoxy)-phenyl]-pyrrolidin-1-yl}-methanone] | 0.1 to 1 µM
3 | Nc1n[nH]c2ccc(C(=O)N3CCCC(c4ccccc4)C3)cc12 (centres unmarked) [compound 115] | 0.1 to 1 µM
4 | Nc1n[nH]c2ccc(C(=O)N3CCCC(c4ccc(Cl)cc4)C3)cc12 (centres unmarked) [compound 116, (3-Amino-1H-indazol-5-yl)-[3-(4-chloro-phenyl)-piperidin-1-yl]-methanone] | 0.1 to 1 µM
5 | Cc1n[nH]c2ncc(C(=O)N3CCC[C@H]3c3ccncc3)cc12 [compound 122, (3-Methyl-1H-pyrazolo[3,4-b]pyridin-5-yl)-((S)-2-pyridin-4-yl-pyrrolidin-1-yl)-methanone] | 0.1 to 1 µM
6 | Cc1n[nH]c2ncc(C(=O)N3CC(O)CC3c3ccc(F)cc3)cc12 (centres unmarked) [compound 127, [2-(4-Fluoro-phenyl)-4-hydroxy-pyrrolidin-1-yl]-(3-methyl-1H-pyrazolo[3,4-b]pyridin-5-yl)-methanone] | 0.1 to 1 µM
7 | Cc1n[nH]c2ncc(C(=O)N3CCC[C@H]3c3cccnc3)cc12 [compound 129, (3-Methyl-1H-pyrazolo[3,4-b]pyridin-5-yl)-((S)-2-pyridin-3-yl-pyrrolidin-1-yl)-methanone] | 0.1 to 1 µM
8 | Nc1n[nH]c2ccc(C(=O)N3CCC[C@H]3c3ccccc3)cc12 [compound 131, (3-Amino-1H-indazol-5-yl)-((S)-2-phenyl-pyrrolidin-1-yl)-methanone] | 0.1 to 1 µM
9 | Nc1n[nH]c2ccc(C(=O)N3CCC[C@@H]3c3ccccc3)cc12 [compound 132, (3-Amino-1H-indazol-5-yl)-((R)-2-phenyl-pyrrolidin-1-yl)-methanone] | 0.1 to 1 µM
10 | Cc1ccc([C@@H]2CCCN2C(=O)c2cnc3[nH]nc(C)c3c2)cc1 [compound 136, (3-Methyl-1H-pyrazolo[3,4-b]pyridin-5-yl)-((S)-2-p-tolyl-pyrrolidin-1-yl)-methanone] | < 0.01 µM
11 | Cc1ccc([C@H]2CCCN2C(=O)c2cnc3[nH]nc(C)c3c2)cc1 [compound 137, (3-Methyl-1H-pyrazolo[3,4-b]pyridin-5-yl)-((R)-2-p-tolyl-pyrrolidin-1-yl)-methanone] | 1 to 10 µM
12 | Cc1n[nH]c2ncc(C(=O)N3CCC[C@@H](c4ccccc4)C3)cc12 [compound 139, (3-Methyl-1H-pyrazolo[3,4-b]pyridin-5-yl)-((S)-3-phenyl-piperidin-1-yl)-methanone] | 0.1 to 1 µM
13 | COc1ccccc1C1CCCN1C(=O)c1cnc2[nH]nc(C)c2c1 (centres unmarked) [compound 141, [2-(2-Methoxy-phenyl)-pyrrolidin-1-yl]-(3-methyl-1H-pyrazolo[3,4-b]pyridin-5-yl)-methanone] | 0.1 to 1 µM
14 | COc1ccccc1[C@@H]1CCCN1C(=O)c1cnc2[nH]nc(C)c2c1 [compound 143, [(S)-2-(2-Methoxy-phenyl)-pyrrolidin-1-yl]-(3-methyl-1H-pyrazolo[3,4-b]pyridin-5-yl)-methanone] | 0.01 to 0.1 µM
15 | Cc1n[nH]c2ncc(C(=O)N3CC[C@@H](N)[C@H]3c3ccc(F)cc3)cc12 [compound 144, [(2R,3R)-3-Amino-2-(4-fluoro-phenyl)-pyrrolidin-1-yl]-(3-methyl-1H-pyrazolo[3,4-b]pyridin-5-yl)-methanone] | 0.01 to 0.1 µM
16 | Cc1n[nH]c2ncc(C(=O)N3C[C@@H](O)C[C@H]3c3ccc(F)cc3)cc12 [compound 145, [(2S,4S)-2-(4-Fluoro-phenyl)-4-hydroxy-pyrrolidin-1-yl]-(3-methyl-1H-pyrazolo[3,4-b]pyridin-5-yl)-methanone] | 0.1 to 1 µM
17 | Nc1n[nH]c2ccc(C(=O)N3CCCC3c3cccc(Cl)c3)cc12 (centres unmarked) [compound 147, (3-Amino-1H-indazol-5-yl)-[2-(3-chloro-phenyl)-pyrrolidin-1-yl]-methanone] | 0.1 to 1 µM
18 | Nc1n[nH]c2ccc(C(=O)N3CCCC3c3ccccc3Cl)cc12 (centres unmarked) [compound 148, (3-Amino-1H-indazol-5-yl)-[2-(2-chloro-phenyl)-pyrrolidin-1-yl]-methanone] | 0.1 to 1 µM

Row | SMILES | IC50
19 | Cc1n[nH]c2ncc(C(=O)N3CCCCC[C@H]3c3cccc(F)c3)cc12 [compound 150, [(S)-2-(3-Fluoro-phenyl)-azepan-1-yl]-(3-methyl-1H-pyrazolo[3,4-b]pyridin-5-yl)-methanone] | 0.1 to 1 µM
20 | O=C(c1cnc2[nH]nc(C3CC3)c2c1)N1CCC[C@H]1c1ccc(Cl)cc1 [compound 152, [(S)-2-(4-Chloro-phenyl)-pyrrolidin-1-yl]-(3-cyclopropyl-1H-pyrazolo[3,4-b]pyridin-5-yl)-methanone] | < 0.01 µM
21 | O=C(c1cnc2[nH]nc(C3CC3)c2c1)N1CCC[C@@H]1c1ccc(Cl)cc1 [compound 153, [(R)-2-(4-Chloro-phenyl)-pyrrolidin-1-yl]-(3-cyclopropyl-1H-pyrazolo[3,4-b]pyridin-5-yl)-methanone] | 0.1 to 1 µM
22 | Cc1n[nH]c2ncc(C(=O)N3CCC[C@H]3c3ccc(C(F)(F)F)cc3)cc12 [compound 157, (3-Methyl-1H-pyrazolo[3,4-b]pyridin-5-yl)-[(S)-2-(4-trifluoromethyl-phenyl)-pyrrolidin-1-yl]-methanone] | < 0.01 µM
23 | Cc1n[nH]c2ncc(C(=O)N3CCC(C)C3c3ccc(C(F)(F)F)cc3)cc12 (centres unmarked) [compound 159, (3-Methyl-1H-pyrazolo[3,4-b]pyridin-5-yl)-[3-methyl-2-(4-trifluoromethyl-phenyl)-pyrrolidin-1-yl]-methanone] | 0.01 to 0.1 µM
24 | Cc1n[nH]c2ncc(C(=O)N3CC(C)CC3c3ccc(C(F)(F)F)cc3)cc12 (centres unmarked) [compound 160, (3-Methyl-1H-pyrazolo[3,4-b]pyridin-5-yl)-[4-methyl-2-(4-trifluoromethyl-phenyl)-pyrrolidin-1-yl]-methanone] | 0.1 to 1 µM
25 | Nc1n[nH]c2ccc(C(=O)N3CCCC3c3ccc(Cl)c(F)c3)cc12 (centres unmarked) [compound 167, (3-Amino-1H-indazol-5-yl)-[2-(4-chloro-3-fluoro-phenyl)-pyrrolidin-1-yl] methanone] | 0.01 to 0.1 µM
26 | O=C(c1cnc2[nH]nc(C3CC3)c2c1)N1CCCCC1c1ccccc1 (centres unmarked) [compound 168, (3-Cyclopropyl-1H-pyrazolo[3,4-b]pyridin-5-yl)-(2-phenyl-piperidin-1-yl)-methanone] | 0.1 to 1 µM
27 | O=C(c1cnc2[nH]nc(C(F)(F)F)c2c1)N1CCCCC1c1ccccc1 (centres unmarked) [compound 169, (2-Phenyl-piperidin-1-yl)-(3-trifluoromethyl-1H-pyrazolo[3,4-b]pyridin-5-yl)-methanone] | 0.1 to 1 µM
28 | Cc1n[nH]c2ncc(C(=O)N3CC[C@@H](C)[C@H]3c3ccc(C(F)(F)F)cc3)cc12 [compound 172, (3-Methyl-1H-pyrazolo[3,4-b]pyridin-5-yl)-[(2S,3R)-3-methyl-2-(4-trifluoromethyl-phenyl)-pyrrolidin-1-yl]-methanone] | < 0.01 µM
29 | Cc1n[nH]c2ncc(C(=O)N3CC[C@@H]3c3ccc(F)cc3)cc12 [compound 175, [(R)-2-(4-Fluoro-phenyl)-azetidin-1-yl]-(3-methyl-1H-pyrazolo[3,4-b]pyridin-5-yl)-methanone] | 0.1 to 1 µM
30 | Cc1n[nH]c2ncc(C(=O)N3CCCC3c3ccc(Cl)c(F)c3)cc12 (centres unmarked) [compound 179, [2-(4-Chloro-3-fluoro-phenyl)-pyrrolidin-1-yl]-(3-methyl-1H-pyrazolo[3,4-b]pyridin-5-yl)-methanone] | 0.01 to 0.1 µM
31 | Cc1n[nH]c2ncc(C(=O)N3CCNC(c4ccccc4)C3)cc12 (centres unmarked) [compound 182, (3-Methyl-1H-pyrazolo[3,4-b]pyridin-5-yl)-(3-phenyl-piperazin-1-yl)-methanone] | 1 to 10 µM
32 | O=C(c1cnc2[nH]nc(C(F)(F)F)c2c1)N1CCCC[C@@H]1c1ccccc1 [compound 183, ((R)-2-Phenyl-piperidin-1-yl)-(3-trifluoromethyl-1H-pyrazolo[3,4-b]pyridin-5-yl)-methanone] | 0.1 to 1 µM
33 | O=C(c1cnc2[nH]nc(C(F)(F)F)c2c1)N1CCCC[C@H]1c1ccccc1 [compound 184, ((S)-2-Phenyl-piperidin-1-yl)-(3-trifluoromethyl-1H-pyrazolo[3,4-b]pyridin-5-yl)-methanone] | 0.1 to 1 µM
34 | Cc1n[nH]c2ncc(C(=O)N3C[C@@H](C(N)=O)[C@H](c4ccc(Cl)cc4)C3)cc12 [compound 185, (3S,4R)-4-(4-Chloro-phenyl)-1-(3-methyl-1H-pyrazolo[3,4-b]pyridine-5-carbonyl)-pyrrolidine-3-carboxylic acid amide] | 1 to 10 µM

Same assay, conditions: IC50 [μM], CDK8 co-expressed with CycC; class symbols

Row | SMILES | IC50
35 | Nc1n[nH]c2ccc(C(=O)N3CCC(c4ccc(Cl)cc4)C3)cc12 (centres unmarked) [compound 117, (3-Amino-1H-indazol-5-yl)-[3-(4-chloro-phenyl)-pyrrolidin-1-yl]-methanone] | 0.01 to 0.1 µM
36 | Nc1n[nH]c2ccc(C(=O)N3CCC[C@@H]3c3ccc(F)cc3)cc12 [compound 120, (3-Amino-1H-indazol-5-yl)-[(R)-2-(4-fluoro-phenyl)-pyrrolidin-1-yl]-methanone] | 0.1 to 1 µM
37 | Nc1n[nH]c2ccc(C(=O)N3CCC[C@H]3c3ccc(F)cc3)cc12 [compound 124, (3-Amino-1H-indazol-5-yl)-[(S)-2-(4-fluoro-phenyl)-pyrrolidin-1-yl]-methanone] | 0.01 to 0.1 µM
38 | Nc1n[nH]c2ccc(C(=O)N3CC[C@H]3c3ccc(F)cc3)cc12 [compound 134, (3-Amino-1H-indazol-5-yl)-[(S)-2-(4-fluoro-phenyl)-azetidin-1-yl]-methanone] | 0.01 to 0.1 µM
39 | Nc1n[nH]c2ccc(C(=O)N3CC[C@@H]3c3ccc(F)cc3)cc12 [compound 135, (3-Amino-1H-indazol-5-yl)-[(R)-2-(4-fluoro-phenyl)-azetidin-1-yl]-methanone] | 0.1 to 1 µM
40 | O=C(c1ccc2[nH]ncc2c1)N1CCC[C@H]1c1ccc(Br)cc1 [compound 156] | 0.01 to 0.1 µM
41 | Cc1n[nH]c2ccc(C(=O)N3CCOCC3c3ccc(Cl)cc3)cc12 (centres unmarked) [compound 178] | < 0.01 µM
